These results are taken from ChEMBL document CHEMBL2073983, “Characterization of the mouse bile salt export pump overexpressed in the baculovirus system” (Hepatology, 2001).

What all share (assay type): functional, cell membranes, Membrane vesicle
For data set [1], the target named is T1, Bile salt export pump (Bsep) (Mus musculus, UniProt Q9QY30).
T1 sequence (Q9QY30 whole entry): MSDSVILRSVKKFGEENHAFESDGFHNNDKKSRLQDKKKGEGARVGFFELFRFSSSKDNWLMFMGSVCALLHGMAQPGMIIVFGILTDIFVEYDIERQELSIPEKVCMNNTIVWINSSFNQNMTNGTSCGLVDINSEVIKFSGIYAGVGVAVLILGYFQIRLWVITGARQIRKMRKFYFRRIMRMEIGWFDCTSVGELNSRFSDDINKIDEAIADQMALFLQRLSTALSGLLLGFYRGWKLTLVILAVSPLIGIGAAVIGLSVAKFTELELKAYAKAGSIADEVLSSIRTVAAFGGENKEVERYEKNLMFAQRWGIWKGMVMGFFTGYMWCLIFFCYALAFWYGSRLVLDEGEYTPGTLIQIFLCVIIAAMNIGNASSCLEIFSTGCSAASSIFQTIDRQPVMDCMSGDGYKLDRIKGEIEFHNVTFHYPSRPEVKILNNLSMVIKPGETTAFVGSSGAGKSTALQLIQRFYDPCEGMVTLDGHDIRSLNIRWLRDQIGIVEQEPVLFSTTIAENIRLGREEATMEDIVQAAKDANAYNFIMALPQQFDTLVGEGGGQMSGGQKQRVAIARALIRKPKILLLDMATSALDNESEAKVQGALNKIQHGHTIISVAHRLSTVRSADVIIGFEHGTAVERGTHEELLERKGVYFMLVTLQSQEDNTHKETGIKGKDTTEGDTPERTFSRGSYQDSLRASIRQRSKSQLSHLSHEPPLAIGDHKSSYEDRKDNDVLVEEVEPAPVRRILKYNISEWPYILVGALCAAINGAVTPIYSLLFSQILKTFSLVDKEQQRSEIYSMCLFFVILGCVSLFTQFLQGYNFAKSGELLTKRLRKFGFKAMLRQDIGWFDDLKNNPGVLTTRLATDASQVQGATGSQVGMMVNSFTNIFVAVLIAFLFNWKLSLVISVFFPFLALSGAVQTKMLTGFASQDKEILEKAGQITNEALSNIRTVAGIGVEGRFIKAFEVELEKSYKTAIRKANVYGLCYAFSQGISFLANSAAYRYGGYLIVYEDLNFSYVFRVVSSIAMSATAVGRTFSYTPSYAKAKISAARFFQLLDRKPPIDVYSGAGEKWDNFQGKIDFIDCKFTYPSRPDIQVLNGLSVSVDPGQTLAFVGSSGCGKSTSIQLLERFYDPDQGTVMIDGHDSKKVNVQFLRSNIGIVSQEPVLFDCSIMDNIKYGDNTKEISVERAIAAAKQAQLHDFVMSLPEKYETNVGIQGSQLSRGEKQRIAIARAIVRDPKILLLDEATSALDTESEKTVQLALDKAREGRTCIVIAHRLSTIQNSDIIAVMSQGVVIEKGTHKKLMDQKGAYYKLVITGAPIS
The data set is described as follows: TP_TRANSPORTER: inhibition of Taurochenodeoxycholate-stimulated ATPase activity (Glibenclamide: 60 uM) in membrane vesicles from Bsep-expressing Sf9 cells. Conditions: probe Taurochenodeoxycholate, read-out: Activity. Also on record: scale not given: the % may be the effect or the level left.

In data set [2] the target is T1, Bile salt export pump (Bsep). Put plainly: TP_TRANSPORTER: inhibition of Taurochenodeoxycholate-stimulated ATPase activity (Rifamycin SV: 100 uM) in membrane vesicles from Bsep-expressing Sf9 cells. Also on record: scale not given: the % may be the effect or the level left. Particulars: probe Taurochenodeoxycholate, read-out: Activity.
Substrate in data set [3]: C[C@H](CCC(=O)NCCS(=O)(=O)O)[C@H]1CC[C@H]2[C@@H]3[C@H](O)C[C@@H]4C[C@H](O)CC[C@]4(C)[C@H]3CC[C@]12C
The data set is described as follows: TP_TRANSPORTER: uptake in membrane vesicles isolated from Bsep-expressing Sf9 cells.

Substrate in data set [4]: C[C@H](CCC(=O)NCC(=O)O)[C@H]1CC[C@H]2[C@@H]3[C@H](O)C[C@@H]4C[C@H](O)CC[C@]4(C)[C@H]3C[C@H](O)[C@]12C
Put plainly: TP_TRANSPORTER: uptake in membrane vesicles from Bsep-expressing Sf9 cells.

With `COc1ccc(Cl)cc1C(=O)NCCc1ccc(S(=O)(=O)NC(=O)NC2CCCCC2)cc1` [GLYBURIDE], in data set [1], the activity at 60 µM was found to be 47.2%.

In the case of `CO[C@H]1/C=C/O[C@@]2(C)Oc3c(C)c(O)c4c(O)c(cc(O)c4c3C2=O)NC(=O)/C(C)=C\C=C\[C@H](C)[C@H](O)[C@@H](C)[C@@H](O)[C@@H](C)[C@H](OC(C)=O)[C@@H]1C` [RIFAMYCIN], the activity at 100 µM in data set [2] was found to be 29.8%.

B1: Bile salt export pump (Mus musculus) (protein)
chain: T1 sequence (Q9QY30 whole entry)
Usually Km stands for the concentration of substrate that gives half-maximal velocity. In the case of B1, the Km in data set [3] was 5.7 µM; in data set [4] it was 19.5 µM.
